Earlier results, collected in patent US20120277719A1, “COATING COMPOSITIONS, METHODS AND COATED DEVICES” (MASSACHUSETTS INSTITUTE OF TECHNOLOGY, priority 2011, published 2012).

Settings: reported

O=C(OC[C@H]1O[C@@H](OC(=O)c2cc(O)c(O)c(OC(=O)c3cc(O)c(O)c(O)c3)c2)[C@H](OC(=O)c2cc(O)c(O)c(OC(=O)c3cc(O)c(O)c(O)c3)c2)[C@@H](OC(=O)c2cc(O)c(O)c(OC(=O)c3cc(O)c(O)c(O)c3)c2)[C@@H]1OC(=O)c1cc(O)c(O)c(OC(=O)c2cc(O)c(O)c(O)c2)c1)c1cc(O)c(O)c(OC(=O)c2cc(O)c(O)c(O)c2)c1 [Tannic acid, tannic acid]
pKa: ~8.5
